pEC50: −log10 of the molar value.
Molecular target: T1, delF508-CFTR (Homo sapiens, UniProt P13569, DEL508-508)
T1 construct: expressed in transfected cells
Experiment: Measurement of delF508-CFTR-HRP surface expression in CFBE41o- cells
Assay type: cell-based
Conditions: for Emax: CFBE41o-, read-out: DelF508-CFTR-HRP Amax %; for pEC50: HRP-tagged delF508-CFTR surface expression, CFBE41o- cells, 24 h with compound, 10-point curve, highest concentration 10 μM
Excerpt: Measurement of deIF508-CFTR-HRP Surface Expression in CFBE41o-Cells
This assay quantifies the cell surface expressions of the mutant CFTR channel using an extracellular HRP tag.
A cellular assay was developed to measure surface expression of horseradish peroxidase (HRP) tagged delF508-CFTR in the human bronchial epithelial immortalized CFBE41o-cell line (Phuan, P. W., et al, (2014) Molecular Pharmacology 86:42-51). Specifically, the HRP sequence was inserted into the fourth extracellular loop of delF508-CFTR and stably expressed in CFBE41o-cells. Cells were seeded in 384 well plate at a density of 5000 cells/well and incubated at 37° C. for 12 to 24 hours in medium (Gibco MEM #11095, 10% FBS, 10 mM HEPES, […], 200 μg/mL G418, 3 μg/mL Puromycin). The delF508-CFTR-HRP expression was induced with 500 ng/mL doxycycline (Sigma D-9891, dissolved in H2O and sterile filtered) in medium and the cells were incubated at 37° C. for 48 h. Old medium was removed and fresh medium was added containing 500 ng/mL doxycycline and unknown test compound at required test concentration in DMSO, not exceeding 0.5% final DMSO concentration. The highest concentration tested was 10 μM with a 10-point concentration response curve using a 3-fold dilution. After addition of compounds, the cells were incubated for 24 h at 37° C. On the final day, cells were washed four times in PBS containing 1 mM MgCl2 and 0.1 mM CaCl2. HRP-Substrate (SuperSignal ELISA Pico, Fisher #37069) 20 μl/well was added and the luminescence signal was determined (Viewlux, Perkin Elmer). Light was emitted upon addition of exogenous HRP-Substrate only when delF508-CFTR-HRP reached the cell surface and the HRP tag was accessible to the HRP-Substrate (note: HRP-Substrate cannot cross the lipid bilayer to reach delF508-CFTR-HRP misfolded within the cell).
The median activity for the lowest concentration of the compounds on each assay plate was calculated and this value was used to normalize the signal for each well on the respective plate. Three replicates at each concentrations for every compound were run to determine one EC50. The median value was determined and used to calculate compound activities as described below. Effective half maximal values (EC50) were calculated for each compound by performing logistic regression on measured dose-response data points using the equation: […]
where “Y” is the observed activity, “Bottom” is the lowest observed value, “Top” is the highest observed value, and the “Hill coefficient” gives the largest absolute value of the slope. The curve fitting is carried out by a curve fitting program implemented at GNF using Matlab (Mathworks).
The dose response curves also were used to calculate Fold Change (FC) using the equation: […]
Compound efficacy relative to the reference compound 3-(6-(1-(2,2-difluorobenzo[d][1,3]dioxol-5-yl)cyclopropane-1-carboxamido)-3-methylpyridin-2-yl)benzoic acid was determined using the following formula: […]

[1] = efficacy relative to reference compound 3-(6-(1-(2,2-difluorobenzo[d][1,3]dioxol-5-yl)cyclopropane-1-carboxamido)-3-methylpyridin-2-yl)benzoic acid

T1 sequence (P13569 with tags, fused parts or gaps DEL508-508): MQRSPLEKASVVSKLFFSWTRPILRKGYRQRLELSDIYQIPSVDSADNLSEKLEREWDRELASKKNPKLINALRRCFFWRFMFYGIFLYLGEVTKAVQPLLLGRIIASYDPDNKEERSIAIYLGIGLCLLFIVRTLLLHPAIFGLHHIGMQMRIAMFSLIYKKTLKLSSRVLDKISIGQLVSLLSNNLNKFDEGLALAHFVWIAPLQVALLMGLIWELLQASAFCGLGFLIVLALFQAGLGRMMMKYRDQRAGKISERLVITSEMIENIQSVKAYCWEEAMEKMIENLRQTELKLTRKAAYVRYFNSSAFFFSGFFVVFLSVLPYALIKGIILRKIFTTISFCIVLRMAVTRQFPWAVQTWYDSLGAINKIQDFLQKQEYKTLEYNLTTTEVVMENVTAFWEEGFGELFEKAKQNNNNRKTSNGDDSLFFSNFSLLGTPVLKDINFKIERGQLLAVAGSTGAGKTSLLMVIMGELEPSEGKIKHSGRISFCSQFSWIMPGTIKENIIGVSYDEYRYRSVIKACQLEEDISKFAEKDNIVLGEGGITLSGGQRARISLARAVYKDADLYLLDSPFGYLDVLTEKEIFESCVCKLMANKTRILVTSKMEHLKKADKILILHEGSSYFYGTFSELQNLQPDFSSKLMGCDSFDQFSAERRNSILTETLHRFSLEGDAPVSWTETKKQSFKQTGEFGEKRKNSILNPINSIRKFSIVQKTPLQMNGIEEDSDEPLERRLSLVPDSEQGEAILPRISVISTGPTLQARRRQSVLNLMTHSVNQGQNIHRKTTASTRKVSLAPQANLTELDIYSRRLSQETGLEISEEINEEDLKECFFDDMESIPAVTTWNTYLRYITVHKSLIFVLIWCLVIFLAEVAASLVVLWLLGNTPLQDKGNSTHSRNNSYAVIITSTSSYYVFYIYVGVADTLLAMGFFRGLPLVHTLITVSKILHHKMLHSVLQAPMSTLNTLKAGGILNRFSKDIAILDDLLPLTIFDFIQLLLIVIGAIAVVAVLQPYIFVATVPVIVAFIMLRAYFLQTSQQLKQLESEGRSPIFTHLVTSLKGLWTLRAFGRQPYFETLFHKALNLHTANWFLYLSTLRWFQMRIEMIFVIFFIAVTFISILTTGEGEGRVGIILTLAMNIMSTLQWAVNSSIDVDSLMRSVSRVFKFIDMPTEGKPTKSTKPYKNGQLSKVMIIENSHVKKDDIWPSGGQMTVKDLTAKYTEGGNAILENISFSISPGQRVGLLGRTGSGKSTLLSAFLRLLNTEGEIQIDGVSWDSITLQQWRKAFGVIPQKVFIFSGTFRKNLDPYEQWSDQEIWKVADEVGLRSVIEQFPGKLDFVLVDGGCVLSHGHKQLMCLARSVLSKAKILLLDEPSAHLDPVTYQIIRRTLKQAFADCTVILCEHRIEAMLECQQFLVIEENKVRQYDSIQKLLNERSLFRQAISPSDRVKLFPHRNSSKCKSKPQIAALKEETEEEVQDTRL

Molecule	Emax [1]	pEC50	DelF508-CFTR-HRP Amax % [1]
O=C(O)CCCCCN1CCCCCc2ccccc2-c2nc(ccc2Cl)NS(=O)(=O)c2cccc1n2 [Compound 82, 6-(2^3-chloro-4,4-dioxido-4-thia-3,6-diaza-2,5(2,6)-dipyridina-1(1,2)-benzenacycloundecaphane-6-yl)hexanoic acid]	652%	6.07	
O=S1(=O)Nc2ccc(C(F)(F)F)c(n2)-c2ccccc2CCCCNCCNc2cccc1n2 [Compound 131, 2^3-(trifluoromethyl)-4-thia-3,6,9-triaza-2,5(2,6)-dipyridina-1(1,2)-benzenacyclotridecaphane 4,4-dioxide]	30.7%	5.41	
6-(3-hydroxypropyl)-2^3-(trifluoromethyl)-9-oxa-4-thia-3,6-diaza-2,5(2,6)-dipyridina-1(1,2)-benzenacyclododecaphane 4,4-dioxide [Compound 30]		5.83	1656.8%
O=C(O)CCCN1CCOCCCc2ccccc2-c2nc(ccc2C(F)(F)F)NS(=O)(=O)c2cccc1n2 [Compound 88, 4-(4,4-dioxido-2^3-(trifluoromethyl)-9-oxa-4-thia-3,6-diaza-2,5(2,6)-dipyridina-1(1,2)-benzenacyclododecaphane-6-yl)butanoic acid]		5.68	
O=C(O)COCCN1CCCCCc2ccccc2-c2nc(ccc2C(F)(F)F)NS(=O)(=O)c2cccc1n2 [Compound 74, 2-(2-(4,4-dioxido-2^3-(trifluoromethyl)-4-thia-3,6-diaza-2,5(2,6)-dipyridina-1(1,2)-benzenacycloundecaphane-6-yl)ethoxy)acetic acid]	745%	5.70	
O=C(O)CCN1CCCCOc2ccc(F)cc2-c2nc(ccc2C(F)(F)F)NS(=O)(=O)c2cccc1n2 [Compound 81, 3-(1^5-fluoro-4,4-dioxido-2^3-(trifluoromethyl)-11-oxa-4-thia-3,6-diaza-2,5(2,6)-dipyridina-1(1,2)-benzenacycloundecaphane-6-yl)propanoic acid]	527%	5.63	
O=S1(=O)Nc2ccc(C(F)(F)F)c(n2)-c2ccccc2CCCCCN(CCN2C[C@H](O)[C@@H](O)C2)c2cccc1n2 [Compound 123, 6-(2-((3S,4S)-3,4-dihydroxypyrrolidin-1-yl)ethyl)-2^3-(trifluoromethyl)-4-thia-3,6-diaza-2,5(2,6)-dipyridina-1(1,2)-benzenacycloundecaphane 4,4-dioxide]	308%	5.73	
O=S1(=O)Nc2ccc(C(F)(F)F)c(n2)-c2ccccc2CCCCCNc2cccc1n2 [Compound 118, 2^3-(trifluoromethyl)-4-thia-3,6-diaza-2,5(2,6)-dipyridina-1(1,2)-benzenacycloundecaphane 4,4-dioxide]	705%	6.29	
O=C(O)CN1CCCCCCc2ccccc2-c2nc(ccc2C(F)(F)F)NS(=O)(=O)c2cccc1n2 [Compound 120, 2-(4,4-dioxido-2^3-(trifluoromethyl)-4-thia-3,6-diaza-2,5(2,6)-dipyridina-1(1,2)-benzenacyclododecaphane-6-yl)acetic acid]	949%	5.85	
O=C(O)C1(CN2CCCCCc3ccccc3-c3nc(ccc3C(F)(F)F)NS(=O)(=O)c3cccc2n3)CC1 [Compound 94, 1-((4,4-dioxido-2^3-(trifluoromethyl)-4-thia-3,6-diaza-2,5(2,6)-dipyridina-1(1,2)-benzenacycloundecaphane-6-yl)methyl)cyclopropane-1-carboxylic acid]	737%	6.25	
O=C(O)CCCCN1CCCCc2ccccc2-c2nc(ccc2C(F)(F)F)NS(=O)(=O)c2cccc1n2 [Compound 80, 5-(4,4-dioxido-2^3-(trifluoromethyl)-4-thia-3,6-diaza-2,5(2,6)-dipyridina-1(1,2)-benzenacyclodecaphane-6-yl)pentanoic acid]		5.85	
O=S1(=O)Nc2ccc(C(F)(F)F)c(n2)-c2cc(F)ccc2CCCCCN(CCCO)c2cccc1n2 [Compound 26, 1^5-fluoro-6-(3-hydroxypropyl)-2^3-(trifluoromethyl)-4-thia-3,6-diaza-2,5(2,6)-dipyridina-1(1,2)-benzenacycloundecaphane 4,4-dioxide]		6.18	
O=C(O)CNCCN1CCCCCc2ccccc2-c2nc(ccc2C(F)(F)F)NS(=O)(=O)c2cccc1n2 [Compound 127, (2-(4,4-dioxido-2^3-(trifluoromethyl)-4-thia-3,6-diaza-2,5(2,6)-dipyridina-1(1,2)-benzenacycloundecaphane-6-yl)ethyl)glycine]	93.6%	5.44	
O=S1(=O)Nc2ccc(C(F)(F)F)c(n2)-c2cccnc2NCCCCCCNc2cccc1n2 [Compound 7, 2^3-(trifluoromethyl)-4-thia-3,6,13-triaza-1(3,2),2,5(2,6)-tripyridinacyclotridecaphane 4,4-dioxide]	386%	6.01	
CCN1CCCCCc2ccccc2-c2nc(ccc2C(F)(F)F)NS(=O)(=O)c2cccc1n2 [Compound 18, 6-ethyl-2^3-(trifluoromethyl)-4-thia-3,6-diaza-2,5(2,6)-dipyridina-1(1,2)-benzenacycloundecaphane 4,4-dioxide]	802%	6.19	

Stronger by pEC50, values ahead:

Emax [1]	pEC50	DelF508-CFTR-HRP Amax % [1]	Molecule
205%	6.65		O=S1(=O)Nc2ccc(C(F)(F)F)c(n2)-c2cccnc2O[C@H]2CCC[C@H](CCC2)Oc2cccc1n2 [Compound 104, (4^1s,4^5s)-1^3-(trifluoromethyl)-3,5-dioxa-7-thia-8-aza-1,6(2,6),2(3,2)-tripyridina-4(1,5)-cyclooctanacyclooctaphane 7,7-dioxide]
583%	6.60		O=S1(=O)Nc2ccc(C(F)(F)F)c(n2)-c2ccccc2CCCCCCNc2cccc1n2 [Compound 36, 2^3-(trifluoromethyl)-4-thia-3,6-diaza-2,5(2,6)-dipyridina-1(1,2)-benzenacyclododecaphane 4,4-dioxide]
	6.63		O=S1(=O)Nc2ccc(C(F)(F)F)c(n2)-c2ccccc2CCCCCCN(CCCCCO)c2cccc1n2 [Compound 12, 6-(5-hydroxypentyl)-2^3-(trifluoromethyl)-4-thia-3,6-diaza-2,5(2,6)-dipyridina-1(1,2)-benzenacyclododecaphane 4,4-dioxide]
843%	6.43		O=C(O)CCCCCN1CCCCCc2ccccc2-c2nc(ccc2C(F)(F)F)NS(=O)(=O)c2cccc1n2 [Compound 70, 6-(4,4-dioxido-2^3-(trifluoromethyl)-4-thia-3,6-diaza-2,5(2,6)-dipyridina-1(1,2)-benzenacycloundecaphane-6-yl)hexanoic acid]
651%	6.41		CC1(C)OCC(CN2CCCCCc3ccccc3-c3nc(ccc3C(F)(F)F)NS(=O)(=O)c3cccc2n3)O1 (stereo not shown) [Compound 37, 6-((2,2-dimethyl-1,3-dioxolan-4-yl)methyl)-2^3-(trifluoromethyl)-4-thia-3,6-diaza-2,5(2,6)-dipyridina-1(1,2)-benzenacycloundecaphane 4,4-dioxide]
	6.45		O=C(O)CCN1CCCCCCCCc2ccccc2-c2nc(ccc2C(F)(F)F)NS(=O)(=O)c2cccc1n2 [Compound 69, 3-(4,4-dioxido-2^3-(trifluoromethyl)-4-thia-3,6-diaza-2,5(2,6)-dipyridina-1(1,2)-benzenacyclotetradecaphane-6-yl)propanoic acid]
	6.59		O=S1(=O)Nc2ccc(C(F)(F)F)c(n2)-c2ccccc2CCCCCCCCN(CCCO)c2cccc1n2 [Compound 43, 6-(3-hydroxypropyl)-2^3-(trifluoromethyl)-4-thia-3,6-diaza-2,5(2,6)-dipyridina-1(1,2)-benzenacyclotetradecaphane 4,4-dioxide]
361%	6.47		CCOC(=O)CN1CCCCOc2ccccc2-c2nc(ccc2C(F)(F)F)NS(=O)(=O)c2cccc1n2 [Compound 3, ethyl 2-(4,4-dioxido-2^3-(trifluoromethyl)-11-oxa-4-thia-3,6-diaza-2,5(2,6)-dipyridina-1(1,2)-benzenacycloundecaphane-6-yl)acetate]
